The record followed here is PubChem BioAssay (NCI).

Test in all cases: growth of human tumour cells (NCI), 48 h
The test system of assay [1] is CAKI-1 renal.
For assay [2], the system named is SK-OV-3 ovarian.
Assay [3] has as its system HT29 colon.
The subject of assay [4] is KM12 colon.
The test system of assay [5] is UACC-62 melanoma.
The subject of assay [6] is EKVX NSCLC.
Assay [7] deals with MOLT-4 leukemia.
Assay [8] has as its system OVCAR-3 ovarian.
Assay [9] relates to RXF 393 renal.
In assay [10] the test system is SN12C renal.

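Tested at 5 concentrations; 48 h exposure; 96-well plates; endpoints linearly interpolated, else capped at highest concentration. The concentration for 50% growth inhibition is given as GI50. At the TGI there is no net growth.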 Where only a bound is given, the exact number is not on record here.

In the case of `C[C@@H]1CCC([C@@H](C)[C@H]2CC[C@H]3[C@@H]4CC[C@H]5C[C@@H](O)CC[C@]5(C)[C@H]4CC[C@]23C)=NC1`, the TGI is 66.6 µM in assay [1]; > 100 µM in assay [2]; > 55.4 µM in [3]; > 59.7 µM in [4]; > 70.8 µM in [5]; > 100 µM in assay [6]. In addition, the TGI in assay [7] was > 66 µM; in [8], > 100 µM; in assay [9], > 100 µM; in [10], > 100 µM.

`CCCCCCCCCCCCSC1=C(Cl)C(=O)C(OC)=C(OC)C1=O`: the GI50 in assay [1] was 4.79 µM; in assay [2], 9.78 µM; in assay [3], 3.22 µM; in assay [4] it was 1.85 µM; in assay [5] it was 2.36 µM; in assay [6], 1.61 µM. Further, the GI50 in assay [7] was 0.617 µM; in assay [8], 1.39 µM; in assay [9], 4.51 µM; in [10], 1.75 µM. Further, the TGI in [1] was 34.2 µM; in [2] it was 27.3 µM; in assay [3], 17.5 µM; in assay [4], 11.6 µM; in assay [5], 17.6 µM; in assay [6] it was > 29.5 µM. In addition, the TGI worked out at 18.6 µM in [7], 18.3 µM in [8], 23.1 µM in assay [9] and 16.5 µM in assay [10].
